From patent US20210386668A1, “Cyclodextrin for use in the treatment and prevention of late phase bronchoconstriction in allergen-induced asthma” (Universite de Liege, priority 2020, published 2021)

Test system: mild to moderate asthmatic patients sensitized to HDM
Assay: Phase 2a proof of concept clinical trial, HDM allergen challenge (FEV1)
Assay type: in vivo, human
Description: Seventeen mild to moderate asthmatics sensitized to HDM were included in a double blind crossover study comprising allergen challenges with HDM. […] These experiments show a significant effect of HPBCD inhalation on the prevention of allergen-induced FEV1 decrease during the late phase.
Clinical trial protocols have been approved by an independent ethical committee (CHU Liege—University of Liege) in accordance with GCPs, Declaration of Helsinki and European regulations (EudraCT). All participants gave written informed consent before any study-specific procedure. For the phase 1 clinical trial, 8 healthy subjects (4 women and 4 men) from 18 to 40 years were recruited and enrolled in the study at the University Hospital of Liege (Belgium). Patients were randomized and received first the placebo (NaCl 0.9%) or HPBCD at 2.5 mM and 8 days after, the opposite treatment. After 1 week, all patients received HPBCD at 15 mM. One month later, all patients received HPBCD at 15 mM during 5 consecutive days. Apyrogenic and sterile HPBCD powder was diluted with NaCl 0.9% before inhalation (8 ml) with an ultrasonic nebulizer (Devilbiss 2000). General symptoms, asthma scores (ACQ), dyspnea, chest Rx, clinical biology, ECG, vital signs, spirometry, NO, sputum (induced by NaCl 4.5%) were analyzed after treatment periods. The second clinical trial (phase 2a-proof of concept) was a double-blinded, cross-over, placebo-controlled study. 17 mild to moderate asthmatic patients were included in the study at two different sites (University Hospital of Liege and University Hospital Erasme) in Belgium. Characterization visits consisted of dyspnea symptoms recording, ECG, chest Rx, clinical biology, spirometry and vital signs analysis. PD20 (provocative dose that causes a 20% fall in FEV1 from the saline alone value) to inhaled allergen was determined. […] The PD20 of the allergen was calculated from a cumulative dose-response curve, as described previously, Cataldo et al., Matrix metalloproteinase-9, but not tissue inhibitor of matrix metalloproteinase-1, increases in the sputum from allergic asthmatic patients after allergen challenge, Chest. 2002; 122(5):1553-9. All […] received a cumulative concentration of Dermatophagoides pteronyssinus with a reactivity index of 6. After 14 days wash-out period, patients were randomly divided into two groups and received either HPBCD 15 mM or Placebo (NaCl 0.9%) by inhalation (ultrasonic nebulizer (Devilbiss 2000)) twice daily. At the end of this treatment period, lung function (FEV1) was analyzed after allergen (HDM) challenge under the supervision of experienced respiratory clinical physiologists. FEV1 was measured after allergen inhalation challenge at 5, 15, 30, 60, 120, 180, 240, 300 and 360 min. After 28 days wash-out period, patients received the opposite treatment for another 14 days and the FEV1 following allergen challenge was evaluated. All clinical parameters were examined after each treatment period. The endpoint of this proof of concept study was changes in FEV1 over 0-360 min post-allergen challenges. FEV1 in early phase (0-60 min) and late phase (180-360 min) were expressed as: area under the FEV1-versus-time curve (AUC), maximum percentage fall and average percentage fall (calculated by dividing the area under the curve of the percentage fall in FEV1 by the duration of the response period). One patient who received placebo had negative maximum FEV1 decrease and negative average percentage fall in FEV1. These negative values were truncated to 0. Patients had access to […] (salbutamol 100 μg) throughout the study as an «as needed» treatment. […]

## CC(O)COC[C@H]1O[C@@H]2O[C@H]3[C@H](O)[C@@H](O)[C@@H](O[C@H]4[C@H](O)[C@@H](O)[C@@H](O[C@H]5[C@H](O)[C@@H](O)[C@@H](O[C@H]6[C@H](O)[C@@H](O)[C@@H](O[C@H]7[C@H](O)[C@@H](O)[C@@H](O[C@H]8[C@H](O)[C@@H](O)[C@@H](O[C@H]1[C@H](O)[C@H]2O)O[C@@H]8COCC(C)O)O[C@@H]7COCC(C)O)O[C@@H]6COCC(C)O)O[C@@H]5COCC(C)O)O[C@@H]4COCC(C)O)O[C@@H]3COCC(C)O (stereo partly drawn) [HPBCD, 2-hydroxypropyl-beta-cyclodextrin]
HPBCD 15 mM inhalation twice daily vs placebo, FIG. 5B
  decrease in FEV1 after HDM challenge (AUC 0-360 min): lower decrease in FEV1
HPBCD 15 mM vs placebo, FIG. 5D
  maximum FEV1 decrease after HDM challenge: significantly lower
HPBCD 15 mM vs placebo, FIG. 5E
  average percentage FEV1 decrease after HDM challenge: significantly lower
Between treatment groups
  hematology, serum biochemistry, urinalysis, vital signs, ECG tests and chest X-ray: No significant changes
Early phase 0-60 min, HPBCD vs placebo
  FEV1 decrease during the early bronchoconstriction phase: No significant differences
Late phase 180-360 min, HPBCD 15 mM vs placebo, FIG. 5C
  prevention of FEV1 decrease during the late phase reaction (AUC): predominant effect
